Assay results taken from US8946439B2, “Amide compounds, compositions and uses thereof” (Evotec AG, priority 2008, dated 2015).
Where two headings read alike, the source gives them in different places.

Assays:
hP2X3 = target: T1, hP2X3 (Homo sapiens, UniProt P56373); assay: Calcium uptake assay (P2X antagonist assay), P2X3 homomer; assay type: cell-based; conditions: hP2X3
T1 construct: expressed in transfected cells; host or cells: e.g. HEK293 or 1321N1
T1 sequence (P56373 1-397): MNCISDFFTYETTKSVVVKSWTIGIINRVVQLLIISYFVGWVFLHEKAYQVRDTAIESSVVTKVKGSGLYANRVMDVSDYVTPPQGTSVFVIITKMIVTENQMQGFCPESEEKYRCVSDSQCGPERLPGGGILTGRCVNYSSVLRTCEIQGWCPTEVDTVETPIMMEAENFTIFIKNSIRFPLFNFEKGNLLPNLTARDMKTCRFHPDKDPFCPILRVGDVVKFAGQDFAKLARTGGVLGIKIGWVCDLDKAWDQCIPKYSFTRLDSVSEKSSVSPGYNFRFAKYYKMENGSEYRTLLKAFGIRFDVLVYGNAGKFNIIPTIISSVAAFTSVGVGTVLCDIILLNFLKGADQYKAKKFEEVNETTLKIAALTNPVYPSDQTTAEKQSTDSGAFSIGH
Method in brief: (§1)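 Stably or transiently transfected HEK293 or 1321N1 cells; the heteromer is made by adding P2X3 to a P2X2-stable line, with heteromer function isolated pharmacologically. The peak-minus-baseline FLIPR calcium signal gives % inhibition and a 4-parameter-logistic IC50.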

hP2X2/3H = target: T2, hP2X2/3H (Homo sapiens, UniProt P56373+Q9UBL9); assay: Calcium uptake assay (P2X antagonist assay), P2X2/3 heteromer; assay type: cell-based; conditions: hP2X2/3H
T2 construct: expressed in transfected cells; host or cells: e.g. HEK293 or 1321N1
T2 sequence (Q9UBL9 1-471): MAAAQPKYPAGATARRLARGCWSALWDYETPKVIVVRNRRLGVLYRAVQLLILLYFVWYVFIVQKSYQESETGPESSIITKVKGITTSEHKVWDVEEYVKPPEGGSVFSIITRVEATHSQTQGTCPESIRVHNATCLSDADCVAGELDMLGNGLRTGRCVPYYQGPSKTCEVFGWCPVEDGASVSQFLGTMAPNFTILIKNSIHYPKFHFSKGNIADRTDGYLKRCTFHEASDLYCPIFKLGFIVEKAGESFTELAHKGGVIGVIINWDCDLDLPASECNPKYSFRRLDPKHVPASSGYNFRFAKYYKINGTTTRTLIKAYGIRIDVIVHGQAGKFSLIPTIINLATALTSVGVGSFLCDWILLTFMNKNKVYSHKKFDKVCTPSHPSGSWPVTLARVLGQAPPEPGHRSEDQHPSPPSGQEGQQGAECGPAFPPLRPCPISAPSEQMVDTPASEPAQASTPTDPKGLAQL
T2 sequence (P56373 1-397): T1 sequence (P56373 1-397)
Method in brief: as §1

[1] = Ca influx (calcium uptake assay), read-out: IC50 hP2X3
[2] = Ca influx (calcium uptake assay), read-out: IC50 hP2X2/3H
[3] = calcium uptake assay, read-out: IC50 hP2X3 (nM), Ca Influx
[4] = calcium uptake assay, read-out: IC50 hP2X2/3H (nM), Ca Influx

Structure (SMILES)	IC50 (hP2X3; [1]) [nM]	IC50 (hP2X2/3H; [2]) [nM]	IC50 (hP2X3; [3]) [nM]	IC50 (hP2X2/3H; [4]) [nM]
Cc1ccc(-c2cc(C(=O)NCc3cnc(C)nc3)cc(C(=O)N3CCN(C)C(=O)C3)c2)cc1 [Compound 27]	–	–	< 100	501 to 1000
Cc1ccc(-c2cc(C(=O)N[C@H](C)c3cnc(C)c(Cl)c3)cc(C(=O)N3CCCC3)c2)cc1 [Compound 104]	–	–	< 100	100 to 500
Cc1ccc(-c2cc(C(=O)NCC(C)C)cc(C(=O)N[C@@H](C)CO)c2)cc1 [Compound 2, (S)—N3-(1-Hydroxypropan-2-yl)-N5-isobutyl-4′-methylbiphenyl-3,5-dicarboxamide]	–	–	501 to 1000	> 1000
COCC(C)Oc1cc(C(=O)N[C@H](C)c2ccc(C)nc2)cc(-c2ccc(C)cc2)c1 (stereo partly drawn) [Compound 299]	< 100	< 100	–	–
Cc1ccc(-c2cc(C(=O)N[C@H](C)c3ccc(C)nc3)cc(C(=O)N3CCN4CCCC4C3)c2)cc1 (stereo partly drawn) [Compound 192]	–	–	< 100	< 100
Cc1ccc(-c2cc(OC3CNCC3O)cc(C(=O)N[C@H](C)c3ccc(C)nc3)c2)cc1 (stereo partly drawn) [Compound 327]	< 100	100 to 500	–	–
Cc1ccc(-c2cc(C(=O)NCc3ccc(C)[n+]([O-])c3)cc(C(O)CN3CCCC3)c2)cc1 (stereo not drawn) [Compound 208]	< 100	100 to 500	–	–
Cc1ccc(-c2cc(OCC3CCCO3)cc(C(=O)N[C@H](C)c3ccc(C)nc3)c2)cc1 (stereo partly drawn) [Compound 310, 4′-Methyl-N—((R)-1-(6-methylpyridin-3-yl)ethyl)-5-((tetrahydrofuran-2-yl)methoxy)biphenyl-3-carboxamide]	< 100	< 100	–	–
Cc1ccc(-c2cc(C(=O)NCc3ccc(C)nc3)cc(C(O)CO)c2)c(C#N)c1 (stereo not drawn) [Compound 297, 2′-Cyano-5-(1,2-dihydroxyethyl)-4′-methyl-N-((6-methylpyridin-3-yl)methyl)biphenyl-3-carboxamide]	< 100	100 to 500	–	–
Cc1ccc(-c2cc(C(=O)NCc3cnc(C)nc3)cc(S(C)(=O)=O)c2)c(C#N)c1 [Compound 59]	–	–	< 100	100 to 500
Cc1ccc(-c2cc(Oc3ccccn3)cc(C(=O)N[C@H](C)c3cnc(C)nc3)c2)c(C#N)c1 [Compound 258]	< 100	100 to 500	–	–
Cc1ccc(-c2cc(C(=O)N[C@H](C)c3cnn(C)c3Cl)cc(C(=O)N3CCCC3)c2)cc1 [Compound 108, (R)—N-(1-(5-Chloro-1-methyl-1H-pyrazol-4-yl)ethyl)-4′-methyl-5-(pyrrolidine-1-carbonyl)biphenyl-3-carboxamide]	–	–	< 100	< 100

More lines, now with the values ahead:

IC50 (hP2X3; [1]) [nM]	IC50 (hP2X2/3H; [2]) [nM]	IC50 (hP2X3; [3]) [nM]	IC50 (hP2X2/3H; [4]) [nM]	Structure (SMILES)
< 100	< 100	–	–	COCCOc1cc(C(=O)NCc2ccc(C)nc2)cc(-c2ccc(C)cc2)c1 [Compound 248, 5-(2-Methoxyethoxy)-4′-methyl-N-((6-methylpyridin-3-yl)methyl)biphenyl-3-carboxamide]
< 100	< 100	–	–	CCS(=O)(=O)c1cc(C(=O)N[C@H](C)c2ccc(C)nc2)cc(-c2ccc(C)cc2)c1 [Compound 209]
< 100	> 1000	–	–	Cc1ccc(-c2cc(C(=O)NCc3ccc(C)nc3)cc(C(O)CN(C)C)c2)cc1 (stereo not drawn) [Compound 367]
–	–	< 100	< 100	Cc1ccc(-c2cc(C(=O)NCc3ccc(C)nc3)cc(S(C)(=O)=O)c2)cc1 [Compound 58, 4′-Methyl-N-((6-methylpyridin-3-yl)methyl)-5-(methylsulfonyl)biphenyl-3-carboxamide]
–	–	100 to 500	100 to 500	Cc1ccc(-c2cc(C(=O)NCc3ccc(C)nc3)cc(C(=O)N3C[C@H]4CNC[C@H]4C3)c2)cc1 [Compound 140, 4′-Methyl-N-((6-methylpyridin-3-yl)methyl)-5-((3aR,6aS)-octahydropyrrolo[3,4-c]pyrrole-2-carbonyl)biphenyl-3-carboxamide]
–	–	100 to 500	100 to 500	Cc1ccc(-c2cc(C(=O)NCc3ccc(C)nc3)cc(C(=O)N3Cc4ccccc4C3)c2)cc1 [Compound 185, 5-(Isoindoline-2-carbonyl)-4′-methyl-N-((6-methylpyridin-3-yl)methyl)biphenyl-3-carboxamide]
